Experimental data from patent US4117108A, “Oral hygiene” (Noxell Corporation, priority 1976, dated 1978).

Key:
[1] = test system: pellicle and plaque growth on extracted human teeth and plastic strip; assay: Inhibition of plaque/pellicle formation on extracted human teeth (mounted on polymethylmethacrylate strip) with composition added to the media (Example 20 procedure); set-up: species or system human saliva / human teeth; details: for pellicle and plaque formation/inhibition on the teeth: 0.1 ml of 1% by weight in distilled water added to about 200 ml media, second 24 h at about 37° C
Procedure: A set of three extracted human teeth without the roots is mounted on a polymethylmethacrylate plastic strip of about 1 inch × 3 inches. A drop of human saliva is applied to each tooth and allowed to dry. The set of teeth is then placed in a petri dish and covered with about 200 ml of an aqueous solution of about 2% trypticase and about 4% sucrose. The dish is then inoculated with an additional 1 ml of human saliva and then incubated at about 37° C for about 24 hours.
Next, the set of teeth is removed from the media, rinsed, and then dipped into a 0.5% aqueous solution of FD & C RED No. 3 to visually disclose the plaque.
The teeth are then brushed with water using an electric toothbrush fitted with a soft nylon brush until all of the red disclosed plaque and/or pellicle is removed.
The teeth are then swabbed with human saliva, placed in a petri dish covered with about 200 ml of the trypticase-sucrose media and about 0.1 ml of a composition containing 1% by weight DL-N-carboxymethylmethyl-N,N-dimethyl-N-(3-palmitamidopropyl) ammonium betaine and the remainder being distilled water. The contents of the dish are then inoculated with an additional 1 ml of saliva and incubated for about 24 hours at about 37° C. At the end of the 24 hours, the set of teeth is removed from the media, dried, and dipped into a 0.5% FE & C RED No. 3 solution for about 60 seconds to visually disclose the presence of pellicle and plaque and is then rinsed under tap water.

[2] = test system: pellicle and plaque growth on extracted human teeth and plastic strip; assay: as above; set-up: species or system human saliva / human teeth; details: 0.1 ml of 1% by weight in propylene glycol; second 24 h
[3] = test system: plaque and pellicle growth on extracted human teeth; assay: Inhibition of plaque/pellicle redeposition on extracted human teeth brushed with the composition, then incubated with saliva (Example 1A procedure)
Procedure: A set of three extracted human teeth without the roots is mounted on a plastic strip of about 1 inch × 3 inches. The teeth are then swabbed with human saliva using a sterile Dacron swab and allowed to dry for about 15 minutes. The strip is then placed in a petri dish and covered with about 200 ml of an aqueous solution of about 2% trypticase and about 4% sucrose. Each dish is then inoculated with an additional 1 ml of human saliva and then incubated at about 37° C for about 24 hours.
Next, the set of teeth is removed from the media, dried, and then dipped into a 0.5% aqueous solution of FD & C RED No. 3 to visually disclose the plaque. The strip is then rinsed under tap water.
The teeth are then brushed with an electric toothbrush […], […], until all of the red disclosed plaque is removed and are then rinsed.
The teeth are then again swabbed with human saliva, placed in a petri dish covered with the trypticase-sucrose media, which is then inoculated with an additional 1 ml of saliva and incubated for about 24 hours at about 37° C. At the end of the 24 hours, the set of teeth is removed from the media, dried, and dipped into a 0.5% FD & C RED No. 3 solution for about 60 seconds to visually disclose the presence of plaque and is then rinsed under tap water.
All of the above examples employed new sets of teeth or plastic strips and new brushes for the brushing, respectively. Any NaCl present in the composition is due to its presence in the available compositions of the fatty acid amido compounds.

[4] = test system: plaque and/or pellicle growth on polymethyl methacrylate strips; assay: Inhibition of plaque/pellicle growth on polymethyl methacrylate strips brushed with the composition (Example 16 procedure); set-up: species or system human saliva; details: second 24 h
[5] = Acute oral LD50 study; details: in vivo, rat, palmitic amido betaine purified according to Example 10
Procedure: An acute oral LD50 study was done on rats for Schercotaine PAB in mature albino rats.
Palmitic amido betaine purified according to Example 10 is also tested according to the above procedure.

[6] = test system: plaque and pellicle formation; assay: Observed plaque/pellicle retardation (general statements, test not specified at the place); details: for plaque inhibition activity: various compositions with about 5% betaine, including (isostearic) 24% glycerin, 1% propylene glycol, 0.75% carboxymethyl cellulose, 69.25% water

In the case of CCCCCCCC/C=C\CCCCCCCC(=O)NCCC[N+](C)(C)C(C)C(=O)[O-] (racemic) [DL-N-carboxymethylmethyl-N,N-dimethyl-N-(3-oleylamidopropyl) ammonium betaine], the “pellicle and plaque formation/inhibition on the teeth” value [1] is reported as “inhibits plaque and pellicle formation on the teeth”.

For CCCCCCCCCCCCCCCC(=O)NCCC[N+](C)(C)C(C)C(=O)[O-] (racemic) [DL-N-carboxymethylmethyl-N,N-dimethyl-N-(3-palmitamidopropyl) ammonium betaine], the “pellicle and plaque formation/inhibition on the teeth” value [1] was “No pellicle and plaque growth are observed on the teeth”.

In the case of CCCCCCCCCCCCCCCCCC(=O)NCCC[N+](C)(C)C(C)C(=O)[O-] (racemic) [DL-N-carboxymethylmethyl-N,N-dimethyl-N-(3-stearamidopropyl) ammonium betaine], the “pellicle and plaque formation/inhibition on the teeth” value [1] is reported as “slight activity against plaque and pellicle formation on the teeth”.

In the case of CCCCCCCC/C=C\CCCCCCCC(=O)NCCC[N+](C)(C)CCS(=O)(=O)[O-] [2-[N,N-dimethyl-N-(3-oleylamidopropyl)-amino] ethanesulfobetaine], the “activity against plaque and pellicle formation on the teeth” value [2] is reported as “exhibits activity against plaque and pellicle formation on the teeth” and the “plaque growth on teeth and plastic” value [2] is reported as “Very slight plaque growth is observed on teeth and plastic”.

In the case of CCCCCCCCCCCCCCCC(=O)NCCC[N+](C)(C)CCS(=O)(=O)[O-] [2-[N,N-dimethyl-N-(3-palmitamidopropyl)-amino] ethanesulfobetaine], the “activity against plaque and pellicle formation on the teeth” value [2] is reported as “exhibits activity against plaque and pellicle formation on the teeth” and the “plaque growth on teeth and plastic” value [2] is reported as “Only slight plaque growth is observed on the teeth and plastic”.

In the case of CCCCCCCC/C=C\CCCCCCCC(=O)NCCC[N+](C)(C)CCC(=O)[O-] [N-carboxyethyl-N,N-dimethyl-N-(3-oleylamidopropyl) ammonium betaine], the “pellicle and plaque formation/inhibition on the teeth” value [1] is reported as “inhibits plaque and pellicle formation on the teeth”.

With CCCCCCCCCCCCCCCC(=O)NCCC[N+](C)(C)CCC(=O)[O-] [N-carboxyethyl-N,N-dimethyl-N-(3-palmitamidopropyl) ammonium betaine] the “pellicle and plaque formation/inhibition on the teeth” value [1] was “complete inhibition of plaque and pellicle formation on the teeth” and the “plaque and/or pellicle on the plastic strip” value ([1]; 0.1 ml of 1% by weight in distilled water, second 24 h) was “very slight plaque and/or pellicle on the plastic strip”.

In the case of CCCCCCCCCCCCCCCCCC(=O)NCCC[N+](C)(C)CCC(=O)[O-] [N-carboxyethyl-N,N-dimethyl-N-(3-stearamidopropyl) ammonium betaine], the “pellicle and plaque formation/inhibition on the teeth” value [1] is reported as “inhibits plaque and pellicle formation on the teeth”.

In the case of CCCCCCCC/C=C\CCCCCCCC(=O)NCCC[N+](C)(C)CC(=O)[O-] [oleic amido betaine], the “inhibition of pellicle and plaque growth” value ([3]; Example 7: about 25% betaine, up to 5% NaCl, water (Schercotaine OAB), second 24 h) is reported as “almost complete inhibition of pellicle and plaque growth on the teeth”.

In the case of CCCCCCCCCCCCCCCC(=O)NCCC[N+](C)(C)CC(=O)[O-] [palmitic amido betaine], the “prevention of plaque and/or pellicle growth” value ([4]; Example 17B: Denta Fresh ingredients with Tegobetaine C replaced by 15% palmitic amido betaine) is reported as “does not prevent plaque and/or pellicle growth”, the LD50 [5] is reported as 2400 mg/kg and the “plaque growth on teeth / inhibition of plaque redeposition” value ([3]; Example 1A: about 25% palmitic amido betaine, 2-5% NaCl, remainder water (Schercotaine PAB), brushed and rinsed, second 24 h at 37° C) is reported as “effectively inhibits the redeposition of dental plaque on the teeth”. The “pellicle and plaque inhibition” value ([3]; Example 2: about 20% betaine, 10% ethyl alcohol, 70% water, second 24 h) was “provides pellicle and plaque inhibition although not as great as the preparation employed in Example 1A”, the “prevention of pellicle and plaque formation” value ([3]; Example 4: about 10% betaine, 8% silica gel (Syloid 244), 36.4% sorbitol, up to 5% NaCl, water, second 24 h) was “complete prevention of pellicle and plaque formation on the teeth” and the “pellicle or plaque formation” value ([3]; Example 5: about 2.5% betaine, 10% ethyl alcohol, up to 5% NaCl, water, brushed and dipped, not rinsed, second 24 h) was “no pellicle or plaque formation on the set of teeth”. For the same compound, the “pellicle and plaque inhibition” value ([3]; Example 8: about 10 parts betaine, 35.7 sorbitol, 8 silica QUSO G-30, 1 propylene glycol, 45 water, second 24 h) was “complete pellicle and plaque inhibition on the teeth”, the “inhibition of pellicle and plaque growth” value ([3]; Example 9: about 10 parts betaine, 35.7 sorbitol, 8 silica QUSO G-32, 1 propylene glycol, 45 water, second 24 h) was “complete inhibition of pellicle and plaque growth” and the “inhibition of plaque and pellicle growth” value ([3]; Example 10: about 10% purified betaine, 90% water, 24 h) was “complete inhibition of plaque and pellicle growth on the teeth”. For the same compound, the “inhibition of plaque and pellicle growth” value ([3]; Example 11: about 5% purified betaine, 95% water, 24 h) was “partial inhibition of plaque and pellicle growth on the teeth”, the “inhibition of pellicle and plaque growth” value ([3]; Example 12: about 30 parts betaine in paste with sorbitol, glycerin, carboxymethyl cellulose, Syloid 244, hydrated alumina, pH about 6.4, second 24 h) was “complete inhibition of pellicle and plaque growth on the teeth” and the “plaque and pellicle inhibition” value ([3]; Example 13: about 25 parts purified betaine in paste with sorbitol, carboxymethyl cellulose, hydrated alumina, Syloid 244, glycerin, second 24 h) was “complete plaque and pellicle inhibition on the teeth”. For the same compound, the “inhibition of plaque and pellicle growth” value ([3]; Example 14: about 30 parts purified betaine in paste with Pluronic F-68, sorbitol, carboxymethyl cellulose, hydrated alumina, Syloid 244, second 24 h) was “complete inhibition of plaque and pellicle growth on the teeth”, the “retardation of plaque formation” value ([6]; about 2.5% betaine, about 10% silica, about 56% sorbitol, up to 5% NaCl, water, with rinsing) was “did not retard plaque formation” and the “retardation of plaque formation” value ([6]; about 2.5% or less betaine, about 10% ethyl alcohol, up to about 5% NaCl, water, with rinsing) was “did not retard plaque formation”. For the same compound, the “retardation of plaque formation” value ([6]; about 5% betaine, about 8% silica, about 50.5% sorbitol, about 36.5% water) was “marginally effective in that sometimes the composition exhibited retardation of plaque while other times the composition did not”, the “retardation of plaque formation” value ([6]; about 5% betaine, about 95% water) was “retarded plaque formation” and the “prevention of plaque formation” value ([6]; same compositions (2.5% or less with ethyl alcohol; 2.5% with silica/sorbitol), no rinsing after treatment) was “prevented the formation of plaque”.

In the case of CCCCCCCCCCCCCCCCCC(=O)NCCC[N+](C)(C)CC(=O)[O-] [stearic amido betaine], the plaque inhibition activity [6] is reported as “did not exhibit plaque inhibition activity”.

For isostearic amido betaine, the “prevention of plaque and/or pellicle growth” value ([4]; Example 17C: Denta Fresh ingredients with Tegobetaine C replaced by 15% isostearic amido betaine) was “does not prevent plaque and/or pellicle growth”, the “plaque and pellicle inhibition” value ([3]; Example 3: about 35% betaine, 2-5% NaCl, remainder water (Schercotaine IAB), second 24 h) was “good plaque and pellicle inhibition” and the “pellicle and plaque inhibition” value ([3]; Example 6: about 5% betaine, 24% glycerin, 0.75% hydroxyethyl cellulose, 1% propylene glycol, up to 5% NaCl, water, second 24 h) was “moderate pellicle and plaque inhibition”. The “plaque and pellicle on the teeth” value ([3]; Example 15: about 14% betaine, 86% water, second 24 h) was “no plaque and pellicle are present on the teeth”, the plaque inhibition ([6]; about 5% betaine, similar composition with about 0.75% hydroxyethyl cellulose in place of carboxymethyl cellulose) was “retarded plaque formation and exhibited moderate plaque inhibition” and the plaque inhibition activity [6] was “did not exhibit plaque inhibition activity”.
